The results in this text go back to patent US6514965B1, “Substituted 1-benzazepines and derivatives thereof” (Antex Pharma Inc., priority 1999, dated 2003).

In one data set the test system is bacteria. Kind of data set: MIC, broth dilution method (antibacterial activity). It counts as cell-based. Particulars: optical density of organisms with and without test compound, bacterial species not stated. On the procedure:
Antibacterial activity can be determined by several standard methods well known by those skilled in the art, including disc diffusions methods, broth dilution minimal inhibitory concentration (MIC) methods, etc., including the detailed method outlined below.
MIC, Broth Dilution Method
Cultures of bacteria are initially brought up from the freezer stocks onto chocolate agar plates by streaking a loop-full, then incubated for 18 hours at 35-37° C. in a 5% CO2 incubator.
Five to 10 colonies are picked from the chocolate agar plate for subculture to Brain-Heart Infusion (BHI) broth or Mueller Hinton broth or BHI containing 4% serum and incubated as described.
Evaluate the optical density of the organisms with and without the test compound. The optical density of the organisms in the presence of an active compound will be less than the optical density of the same organism untreated. The activity of the compounds is described as either negative or the lowest concentration inhibiting growth. The results are depicted in Table III, where +/− represents the least activity and ++++ represents the greatest activity.
Background: Dilution methods test growth across graded concentrations, often in twofold steps.

Each structure is given as a SMILES string.

`COc1cc2c(cc1Br)CCCC(=O)N2` [Example 24, 7-Bromo-8-methoxy-2,3,4,5-tetrahydro-1H-1-benzazepine-2-one] yielded a melting point of 180 to 182 °C.
Take `CCN1C(=O)C(C(=O)OC(C)(C)C)CCc2ccc(OC)cc21` (racemic) [Example 12, 3(R,S)-tert-Butoxycarbonyl-1-ethyl-8-methoxy-2,3,4,5-tetrahydro-1H-1-benzazepine-2-one]: the melting point lay within 132 to 133 °C.
In turn, `COc1cc2c(cc1Br)CCC(C(=O)OC(C)(C)C)C(=O)N2` (racemic) [Example 32, 7-Bromo-3(R,S)-tert-butoxycarbonyl-8-methoxy-2,3,4,5-tetrahydro-1H-1-benzazepine-2-one] displayed a melting point of 207 to 208 °C.
As for `CCN1C(=O)C(C(=O)O)CCc2cc(Br)c(OC)cc21` (racemic) [Example 17, 7-Bromo-3(R,S)-carboxyl-1-ethyl-8-methoxy-2,3,4,5tetrahydro-1H-1-benzazepine-2-one], the melting point was 188 to 189 °C (dec.).
Compound `CCN1C(=O)C(C(=O)O)CCc2ccc(OC)cc21` (racemic) [Example 5, 3(R,S)-Carboxyl-1-ethyl-8-methoxy-2,3,4,5-tetrahydro-1H-1-benzazepine-2-one] registered a melting point of 120 to 121 °C.
On to `CCN1C(=O)CCCc2cc(Br)c(OC)cc21` [Example 9, 7-Bromo-1-ethyl-8-methoxy-2,3,4,5-tetrahydro-1H-1-benzazepine-2-one], for which the melting point lay within 133 to 135 °C.
Compound `COc1ccc2c(c1)N(C(=O)OC(C)(C)C)C(=O)C(C(=O)OC(C)(C)C)CC2` (racemic) [Example 23, 1-tert-Butoxycarbonyl-3(R,S)-tert-butoxycarbonyl-8-methoxy-2,3,4,5-tetrahydro-1H-1-benzazepine-2-one] yielded a melting point of 91 to 92 °C.
As to `COc1cc2c(cc1N1CCN(C(=O)OCc3ccccc3)CC1)CCC(C(=O)OC(C)(C)C)C(=O)N2Cc1cccc(F)c1` (racemic) [Example 31, 7-[(4-Benzyloxycarbonyl)piperazin-1-yl]-3(R,S)-tert-butoxycarbonyl-1-(3-fluorobenzyl)-8-methoxy-2,3,4,5-tetrahydro-1H-1-benzazepine-2-one], the “Antibacterial Activity” value with bacteria is on record as “++++”.
On to `CCN1C(=O)CCCc2cc(N3CCN(C)CC3)c(OC)cc21` [Example 10], for which the “Antibacterial Activity” value in the data set on bacteria is “+/−”.
`COc1ccc2c(c1)NC(=O)C(C(=O)OC(C)(C)C)CC2` (racemic) [Example 11, 3(R,S)-tert-Butoxycarbonyl-8-methoxy-2,3,4,5-tetrahydro-1H-1-benzazepine-2-one] came in with a melting point of 145 to 147 °C.
With `CCN1C(=O)C(C(=O)OC(C)(C)C)CCc2cc(Br)c(OC)cc21` (racemic) [Example 13, 7-Bromo-3(R,S)-tert-butoxycarbonyl-1-ethyl-8-methoxy-2,3,4,5-tetrahydro-1H-1-benzazepine-2-one], the melting point fell in the range of 131 to 132 °C.
For the compound `COc1cc2c(cc1Br)CCC(C(=O)OC(C)(C)C)C(=O)N2Cc1cccc(F)c1` (racemic) [Example 30, 7-Bromo-3(R,S)-tert-butoxycarbonyl-1-(3-fluorobenzyl)-8-methoxy-2,3,4,5-tetrahydro-1H-1-benzazepine-2-one], the melting point was 146 to 148 °C.
Still for that read-out and setting: with `CCN1C(=O)C(C(=O)O)CCc2cc(N3CCNCC3)c(OC)cc21.Cl` (racemic) [Example 15, 3(R,S)-Carboxyl-1-ethyl-8-methoxy-7-(piperazin-1-yl)-2,3,4,5-tetrahydro-1H-1-benzazepine-2-one Hydrochloride] the figure was 173 to 176 °C (dec.); with `CCN1C(=O)C(C(=O)OC(C)(C)C)C=Cc2ccc(OC)cc21` (racemic) [Example 16, 3(R,S)-tert-Butoxycarbonyl-1-ethyl-8-methoxy-2,3-dihydro-1H-1-benzazepine-2-one], 173 to 174 °C; with `COc1ccc2c(c1)NC(=O)CCC2` [Example 2, 8-Methoxy-2,3,4,5-tetrahydro-1H-1-benzazepine-2-one], 105 to 106 °C.
On the same count and under the same terms, under `CCN1C(=O)C(C(=O)OC(C)(C)C)CCc2cc(N3CCNCC3)c(OC)cc21` (racemic) [Example 18, 3(R,S)-tert-Butoxycarbonyl-1-ethyl-8-methoxy-7-(piperazin-1-yl)-2,3,4,5-tetrahydro-1H-1-benzazepine-2-one] stands 165 °C (dec.); under `CCOC(=O)C1CCc2ccc(OC)cc2NC1=O` (racemic) [Example 3, 3(R,S)-Ethoxycarbonyl-8-methoxy-2,3,4,5-tetrahydro-1H-1-benzazepine-2-one], 89 to 91 °C.
For `CC(C)(C)[Si](C)(C)Oc1ccc2c(c1)NC(=O)CCC2` [Example 36, 8-(tert-butyldimethylsilyloxy)-2,3,4,5-tetrahydro-1H-1-benzazepine-2-one], the “Antibacterial Activity” value with bacteria is “++++”.
For `O=C1CCCc2ccc(O)cc2N1` [Example 33, 8-Hydroxy-2,3,4,5-tetrahydro-1H-1-benzazepine-2-one], the melting point is 226 to 227 °C.
Turning to `CCN1C(=O)C(Br)(C(=O)OC)CCc2cc(Br)c(OC)cc21` (racemic) [Example 27, 3,7-Dibromo-1-ethyl-3(R,S)-methoxycarbonyl-8-methoxy-2,3,4,5-tetrahydro-1H-1-benzazepine-2-one], the melting point was 71 to 73 °C (dec.).

What is called melting point is the temperature, or range, at which the solid turns liquid.
